# Results taken from ChEMBL document CHEMBL1134353, “X-Ray structure of citrate bound to Src SH2 leads to a high-affinity, bone-targeted Src SH2 inhibitor” (J Med Chem, 2001).
# What was measured:
# [1] = biological target: Proto-oncogene tyrosine-protein kinase Src (Homo sapiens, UniProt P12931); assay: Inhibition of binding to Src SH2 domain
# [2] = species: Oryctolagus cuniculus; assay: Ability to inhibit osteoclast mediated resorption of dentine in rabbit; type: functional
# Proto-oncogene tyrosine-protein kinase Src, sequence (P12931 2-536 limits assumed): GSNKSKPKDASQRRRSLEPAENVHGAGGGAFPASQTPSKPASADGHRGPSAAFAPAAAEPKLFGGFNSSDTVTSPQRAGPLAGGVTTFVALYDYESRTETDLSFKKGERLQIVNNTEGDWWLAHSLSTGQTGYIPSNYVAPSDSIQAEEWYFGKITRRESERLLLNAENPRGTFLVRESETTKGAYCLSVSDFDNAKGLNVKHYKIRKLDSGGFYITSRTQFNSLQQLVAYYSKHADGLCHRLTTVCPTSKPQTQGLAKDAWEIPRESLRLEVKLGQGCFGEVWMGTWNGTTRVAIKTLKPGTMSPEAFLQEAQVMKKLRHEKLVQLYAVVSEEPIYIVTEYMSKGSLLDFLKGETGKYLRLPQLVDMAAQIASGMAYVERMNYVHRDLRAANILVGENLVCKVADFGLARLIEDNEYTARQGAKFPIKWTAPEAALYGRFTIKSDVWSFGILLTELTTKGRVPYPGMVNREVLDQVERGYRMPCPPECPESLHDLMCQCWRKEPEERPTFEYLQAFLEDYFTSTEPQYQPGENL
SMILES,IC50 [1],IC50 [2]
CC(=O)N[C@@H](Cc1ccc(C(P(=O)(O)O)P(=O)(O)O)cc1)C(=O)N[C@@H](C)c1ccc(OCC2CCCCC2)c(C(N)=O)c1,0.35 µM,2 µM
CC(=O)N[C@@H](Cc1ccc(CP(=O)(O)O)cc1)C(=O)N[C@@H](C)c1ccc(OCC2CCCCC2)c(C(N)=O)c1,7.9 µM,–
